From US20060211687A1, “Potassium salt of an hiv integrase inhibitor” (priority 2003, published 2006)

How the values were obtained:
HIV integrase = target: T1, HIV integrase (Human immunodeficiency virus type 1 group M subtype B, UniProt P04585); experiment: integrase inhibition assay in which strand transfer is catalyzed by recombinant integrase; type: biochemical; conditions: assay of Example 193 of WO 02/30930
T1 construct: strand transfer is catalyzed by recombinant integrase
Description: Compound A is an inhibitor of HIV integrase. […] The strand transfer assay is described in Example 193 of WO 02/30930.

[1] = system: HIV infection of T-lymphoid cells; experiment: inhibition of acute HIV infection of T-lymphoid cells; type: cell-based; conditions: in accordance with Vacca et al.
[2] = solubility in ethanol containing water; type: physicochemical; conditions: ethanol containing 1 to 5 vol. % and 10 vol% water
Protocol: Experiments have been conducted in which the Compound A K salt ethanolate of the present invention was slurried in ethanol containing 1, 2, 3, 4, 5 and 10 vol. % water, followed by measurement of the XRPD patterns of the collected crystals. In addition, the solubility of the Compound A K salt ethanolate was also determined for the 1 to 5 vol. % and 10 vol% water in ethanol solutions. […] Accordingly, it is believed that the crystalline ethanolate hydrate material of the present invention exists as a water-ethanol isomorphic co-solvate. […] In accordance with these experimental results, the crystalline potassium salt ethanolate of Compound A of the invention can contain water as a co-solvate up to a maximum water content, beyond which the crystalline salt (as shown by the XRPD and solubility results described above) changes to another form.

solubility in water = type: physicochemical; conditions: compared to the free base
[3] = pharmacokinetics in animal models; type: in vivo; conditions: over the free base
[4] = oral bioavailability and pharmacokinetics in rats; type: in vivo; conditions: relative to amorphous and crystalline Compound A
[5] = oral bioavailability and pharmacokinetics in dogs; type: in vivo; conditions: relative to amorphous and crystalline Compound A
hygroscopicity = type: physicochemical; conditions: compared with the sodium salt of Compound A
stability of the salt = type: physicochemical; conditions: compared with the sodium salt of Compound A
[6] = listed as crystalline potassium salt of Compound A

SMILES: CNC(=O)c1cc(F)ccc1CNC(=O)c1nc(N2CCCCS2(=O)=O)c2cccnc2c1O [Compound A, 5-(1,1-dioxido-1,2-thiazinan-2-yl)-N-{4-fluoro-2-[(methylamino)carbonyl]benzyl}-8-hydroxy-1,6-naphthyridine-7-carboxamide]
- inhibition of HIV integrase (strand transfer) (HIV integrase): potent inhibitor
- inhibition of acute HIV infection of T-lymphoid cells [1]: active

SMILES: CNC(=O)c1cc(F)ccc1CNC(=O)c1nc(N2CCCCS2(=O)=O)c2cccnc2c1[O-].[K+] [Salt A1, Potassium 5-(1,1-dioxido-1,2-thiazinan-2-yl)-7-[({4-fluoro-2-[(methylamino)carbonyl]benzyl}amino)carbonyl]-1,6-naphthyridin-8-olate]
- solubility trend [2]: increasing solubility from 1 to 5 vol % reversed to lower solubility at 10 vol. %

SMILES: CNC(=O)c1cc(F)ccc1CNC(=O)c1nc(N2CCCCS2(=O)=O)c2cccnc2c1[O-].[K+] [potassium salt of Compound A, Potassium 5-(1,1-dioxido-1,2-thiazinan-2-yl)-7-[({4-fluoro-2-[(methylamino)-carbonyl]benzyl}amino)carbonyl]-1,6-naphthyridin-8-olate]
- solubility in water (solubility in water): significantly more soluble
- pharmacokinetics [3]: improved
- AUC [4]: improved
- Cmax [4]: improved
- oral bioavailability [4]: superior
- AUC [5]: improved
- Cmax [5]: improved
- oral bioavailability [5]: superior
- hygroscopicity (hygroscopicity): significantly less hygroscopic
- hygroscopicity (hygroscopicity; [6]): less
- stability (stability of the salt): more stable
- stability (stability of the salt; [6]): improved
